The IC50 is the concentration at which inhibition is half-maximal. High values mean weaker potency in that assay, low ones greater potency in that assay.

Where “and” joins values, the source holds several entries; their conditions need not be identical. Equal values may be shown once.

Test [1] deals with BRAF. Briefly: Western blot of ERK1/2 phosphorylation induced by BRAF (BRAF-WT / BRAF-V600E). Format: cell-based, human. The method, then:
HEK293SL cells (10^5 cells per well) were seeded in a poly-L-lysine-coated six-well plate and transiently transfected with 3 μg Flag-AT1R, HA-B2R or HA-β2AR and/or 500 ng Flag-MEK1-WT, Flag-MEK1-DD, Flag-BRAF-WT, Flag-BRAF-V600E, Flag-K-Ras-WT, Flag-K-Ras-G12V, HA-ARF6-WT, or HA-ARF6-T27N. Gαq/11 KO and βarr1/2 KO cells were seeded onto 100 mm dishes at a density of 10^6 cells per dish. Next day, cells were transfected with 3 μg AT1R alone or along with 500 ng of β-arrestin2 using PEI. After 18 h of transfection, cells were detached and re-seeded onto poly-L-lysine coated 12-well plates (~1.5–2 × 10^5cells/well) for subsequent experiments. Forty-eight hours post transfection, in a 37 °C water bath, cells were serum-starved for 30 min, pretreated with DMSO (0.1%) or compound 21/Rasarfin (50 µM or at indicated concentrations) for 30 min, then stimulated or not with the indicated ligand [AngII (1 µM), BK (1 µM), Iso (10 µM) or EGF (100 ng/ml)] at indicated times. Cells were put on ice, washed with PBS and solubilized in 2x laemmli buffer (250 mM Tris–HCl pH 6.8, 2% SDS (w/v), 10% glycerol (v/v), 0.01% bromophenol blue (w/v) and 5% β-mercaptoethanol (v/v)) by heating at 65 °C for 15 min. Lysates were resolved on 10 or 14% SDS-PAGE, transferred to nitrocellulose membranes and immunoblotted for p-ERK1/2, ERK1/2, p-Akt, Akt, HA, Myc, β-actin or FLAG. ImageLab 5.2 software was used to quantify the digital blots as fold of the phosphorylated protein over total protein, which were then normalized as indicated in the figure legends. Uncropped immunoblots are provided in the Source Data file.

Test [2] concerns Ras. Briefly: Ras BRET sensor (Raf1-RBD-RlucII / rGFP-CAAX), AT1R-mediated. Format: cell-based, human. The text has this:
Since 21 inhibited both ERK1/2 and Akt activation by GPCRs and EGFR, we looked at a common target involved in both pathways. The small G protein Ras is an upstream regulator of both Ras-RAF-MEK-ERK and PI3K/Akt signaling pathways[35],[36]. Therefore, we explored 21’s ability to inhibit Ras activity using GST-Raf1-Ras-binding domain (RBD) in a pull-down assay. A reduction of 60% in GTP-bound Ras was noticed in pulled-down from cells treated with 21 and stimulated with either AT1R or EGFR, as compared to vehicle-treated cells (Fig. 4a, b). Complementary to this in vitro assay, we generated a Ras BRET assay, using the Raf-Ras binding domain tagged with RlucII (Raf1-RBD-RlucII) and the rGFP at the PM (rGFP-CAAX) (Supplementary Fig. 3c), to assess 21’s effects on Ras activation kinetics. […] Overexpression of either the active form of Ras (G12V) or SOS1 anchored at the PM (SOS-CAAX) produced a robust basal BRET signal that was no longer modulated by receptor activation (Supplementary Fig. 3d). […] 21’s potency to inhibit ARF6 and Ras is also consistent with its relative efficacy for inhibiting AT1R internalization and MAPK, respectively, when used at 50 μM (e.g., around 7 and 70 times the respective IC50s) (Figs. 2e and 3a). We also assessed if 21 was acting as a pan small G protein inhibitor by testing its effect on Rho and Rac/Cdc42. […] To assess Rac/Cdc42 activity, we generated a Rac/Cdc42 BRET sensor that consisted of the PAK-CRIB domain fused to RlucII (PAK-CRIB-RlucII) and the rGFP-CAAX (Supplementary Fig. 3e). PAK-CRIB, which binds to active Rac/Cdc42, was recruited to the PM upon AngII stimulation of cells and generated a robust BRET signal, which was blocked by the overexpression of the DN Rac1-T17N. Overexpression of the constitutively active Rac1-Q61L increased the basal BRET, which was no longer modulated by AT1R stimulation (Supplementary Fig. 3f).
HEK293SL cells were seeded at a density of 7.5 × 10^5 cells per 100-mm dish and 24 h later, transiently transfected as such. For receptor internalization experiments, cells were transfected with 0.12 μg AT1R-RlucII, B2R-RlucII, or β2AR-RlucII and 0.48 μg of either rGFP-CAAX (to assess removal from the PM) or rGFP-FYVE (to assess accumulation in the endosomes). For β-arrestin recruitment assays, cells were transfected with 0.48 μg of receptor-YFP along with 0.12 μg of β-arrestin-RlucII. For β-arrestin/AP-2 binding experiments, cells were transfected with 1 μg Flag-AT1R, 1 μg β2-Adaptin-YFP, and 0.12 μg β-arrestin2-RlucII. For G protein activation, cells were transfected with 3 μg of sp-Flag-AT1R along with either 4.5 μg of the Gαq-polycistronic BRET sensor or 0.24 μg of the Gαi3-RlucII and 0.6 μg of GFP10-Gγ2 and Gβ1 sensors or 0.12 μg PKN-RBD-RlucII and 0.48 μg of rGFP-CAAX. For PKC activation, cells were transfected with 3 μg of sp-Flag-AT1R and 0.18 μg of the PKC sensor. For GTPase activation experiments, cells were transfected with 1 μg Flag-AT1R, 0.48 μg of rGFP-CAAX, and either 0.12 μg of GGA3-PBD-RlucII, PAK-CRIB-RlucII or Raf-RBD-RlucII. For biosensor validation experiments, cells were additionally transfected with 500 ng Flag-K-Ras-WT, Flag-K-Ras-G12V, Flag-K-Ras-SOS-CAAX, HA-ARF6-WT, HA-ARF6-T27N, Myc-Rac1-WT, Myc-Rac1-Q61L or Myc-Rac1-T17N. For PI3K/Akt activation experiments, cells were transfected with 0.48 μg of rGFP-CAAX and 0.12 μg of Akt (PH)-RlucII. After 18 h of transfection, the media was replaced and cells were divided for subsequent experiments. Cells were detached and seeded onto poly-L-ornithine-coated 96-well flat white bottom plates (BrandTech Scientific) at a density of 2.5 × 10^4 cells per well in media. The next day, cells were washed once with Tyrode’s buffer (140 mM NaCl, 2.7 mM KCl, 1 mM CaCl2, 12 mM NaHCO3, 5.6 mM D-glucose, 0.5 mM MgCl2, 0.37 mM NaH2PO4, 25 mM HEPES, pH 7.4) and left in Tyrode’s buffer. […]

For the compound `CC(C)C(=O)N1CCN(c2ccc(NC(=O)c3cc4ccccc4o3)cc2Cl)CC1` [Compound 21], the “ERK1/2 activation induced by overexpression of BRAF-V600E” value in test [1] (50 μM) was “nor did it block ERK1/2 activation”. The “ERK1/2 phosphorylation relative to mock (S_Fig.4d)” value in test [1] (Flag-BRAF-V600E, listed as Comp 21) is 3.464 and 4.631 and 3.5221 and 2.836; in test [1] (Flag-BRAF-WT, listed as Comp 21), 1 and 1.273 and 1.416; in test [1] (mock), 1. In addition, the “decrease of Ras activation following AT1R stimulation (Ras BRET assay)” value in test [2] (50 μM) is given as 50–70%. Besides, in test [2] (AT1R, dose-response), the midpoint of inhibition, the IC50, lay at 700 nM. For the same compound, in test [2] (Comp 21 50 μM, Time 0 min), the “Ras BRET sensor signal (Fig.4c), single experiments” value is 0. The “Ras MEAN (Fig.4d)” value in test [2] (Log [Comp 21] (M) -4) was 16.3196; in test [2] (Log [Comp21] (M) -4.3) it was 30.5907; in test [2] (Log [Comp21] (M) -5), 29.6351; in test [2] (Log [Comp21] (M) -5.3), 36.1989; in test [2] (Log [Comp 21] (M) -6), 54.1758; in test [2] (Log [Comp21] (M) -6.3) it was 74.1367. Moreover, the “Ras MEAN (Fig.4d)” value in test [2] (Log [Comp 21] (M) -7) was 95.616.
